Test system: B16 cells gene expression
Assay: RNA-Seq (DEGs, GSEA, heatmaps) of B16 cells
Settings: B16 cells

Structure (SMILES): COc1cc(N)cc2c1nc(C(F)F)n2-c1nc(N2CCCOCC2)nc(N2CCOCC2)n1 [KTC1101, 2-(difluoromethyl)-4-methoxy-1-(4-morpholino-6-(1,4-oxazepan-4-yl)-1,3,5-triazin-2-yl)-1H-benzo[d]imidazol-6-amine]
- enrichmentScore, mmu04211 Longevity regulating pathway (KTC1101 0.2μM, GSEA KEGG): 0.2589
- enrichmentScore, mmu04213 Longevity regulating pathway - multiple species (KTC1101 0.2μM, GSEA KEGG): 0.2778
- enrichmentScore, mmu04215 Apoptosis - multiple species (KTC1101 0.2μM, GSEA KEGG): 0.3327
- enrichmentScore, mmu04216 Ferroptosis (KTC1101 0.2μM, GSEA KEGG): -0.2787
- enrichmentScore, mmu04217 Necroptosis (KTC1101 0.2μM, GSEA KEGG): -0.2455
- enrichmentScore, mmu04270 Vascular smooth muscle contraction (KTC1101 0.2μM, GSEA KEGG): 0.2845
- enrichmentScore, mmu04360 Axon guidance (KTC1101 0.2μM, GSEA KEGG): 0.2929
- enrichmentScore, mmu04392 Hippo signaling pathway - multiple species (KTC1101 0.2μM, GSEA KEGG): 0.3945
- enrichmentScore, mmu04514 Cell adhesion molecules (KTC1101 0.2μM, GSEA KEGG): 0.3446
- enrichmentScore, mmu04520 Adherens junction (KTC1101 0.2μM, GSEA KEGG): 0.258
- enrichmentScore, mmu04530 Tight junction (KTC1101 0.2μM, GSEA KEGG): -0.1527
- enrichmentScore, mmu04550 Signaling pathways regulating pluripotency of stem cells (KTC1101 0.2μM, GSEA KEGG): 0.3252
- enrichmentScore, mmu04611 Platelet activation (KTC1101 0.2μM, GSEA KEGG): 0.2724
- enrichmentScore, mmu04612 Antigen processing and presentation (KTC1101 0.2μM, GSEA KEGG): 0.2974
- enrichmentScore, mmu04622 RIG-I-like receptor signaling pathway (KTC1101 0.2μM, GSEA KEGG): 0.2627
- enrichmentScore, mmu04623 Cytosolic DNA-sensing pathway (KTC1101 0.2μM, GSEA KEGG): 0.3684
- enrichmentScore, mmu04650 Natural killer cell mediated cytotoxicity (KTC1101 0.2μM, GSEA KEGG): 0.2671
- enrichmentScore, mmu04658 Th1 and Th2 cell differentiation (KTC1101 0.2μM, GSEA KEGG): 0.359
- enrichmentScore, mmu04660 T cell receptor signaling pathway (KTC1101 0.2μM, GSEA KEGG): 0.174
- enrichmentScore, mmu04662 B cell receptor signaling pathway (KTC1101 0.2μM, GSEA KEGG): 0.2749
- enrichmentScore, mmu04666 Fc gamma R-mediated phagocytosis (KTC1101 0.2μM, GSEA KEGG): -0.2944
- enrichmentScore, mmu04670 Leukocyte transendothelial migration (KTC1101 0.2μM, GSEA KEGG): 0.2117
- enrichmentScore, mmu04714 Thermogenesis (KTC1101 0.2μM, GSEA KEGG): -0.2154
- enrichmentScore, mmu04720 Long-term potentiation (KTC1101 0.2μM, GSEA KEGG): 0.2329
- enrichmentScore, mmu04723 Retrograde endocannabinoid signaling (KTC1101 0.2μM, GSEA KEGG): 0.2816
- enrichmentScore, mmu04726 Serotonergic synapse (KTC1101 0.2μM, GSEA KEGG): 0.3744
- enrichmentScore, mmu04727 GABAergic synapse (KTC1101 0.2μM, GSEA KEGG): 0.3552
- enrichmentScore, mmu04728 Dopaminergic synapse (KTC1101 0.2μM, GSEA KEGG): 0.2754
- enrichmentScore, mmu04730 Long-term depression (KTC1101 0.2μM, GSEA KEGG): 0.3483
- enrichmentScore, mmu04750 Inflammatory mediator regulation of TRP channels (KTC1101 0.2μM, GSEA KEGG): 0.2734
- enrichmentScore, mmu04910 Insulin signaling pathway (KTC1101 0.2μM, GSEA KEGG): 0.2919
- enrichmentScore, mmu04912 GnRH signaling pathway (KTC1101 0.2μM, GSEA KEGG): 0.3311
- enrichmentScore, mmu04915 Estrogen signaling pathway (KTC1101 0.2μM, GSEA KEGG): 0.2687
- enrichmentScore, mmu04916 Melanogenesis (KTC1101 0.2μM, GSEA KEGG): 0.2873
- enrichmentScore, mmu04917 Prolactin signaling pathway (KTC1101 0.2μM, GSEA KEGG): 0.2949
- enrichmentScore, mmu04920 Adipocytokine signaling pathway (KTC1101 0.2μM, GSEA KEGG): 0.3361
- enrichmentScore, mmu04929 GnRH secretion (KTC1101 0.2μM, GSEA KEGG): -0.3021
- enrichmentScore, mmu04930 Type II diabetes mellitus (KTC1101 0.2μM, GSEA KEGG): 0.385
- enrichmentScore, mmu04932 Non-alcoholic fatty liver disease (KTC1101 0.2μM, GSEA KEGG): -0.2292
- enrichmentScore, mmu04934 Cushing syndrome (KTC1101 0.2μM, GSEA KEGG): 0.2719
- enrichmentScore, mmu04936 Alcoholic liver disease (KTC1101 0.2μM, GSEA KEGG): 0.2103
- enrichmentScore, mmu04960 Aldosterone-regulated sodium reabsorption (KTC1101 0.2μM, GSEA KEGG): 0.4243
- enrichmentScore, mmu04961 Endocrine and other factor-regulated calcium reabsorption (KTC1101 0.2μM, GSEA KEGG): 0.3281
- enrichmentScore, mmu04962 Vasopressin-regulated water reabsorption (KTC1101 0.2μM, GSEA KEGG): 0.3811
- enrichmentScore, mmu04970 Salivary secretion (KTC1101 0.2μM, GSEA KEGG): 0.3709
- enrichmentScore, mmu04972 Pancreatic secretion (KTC1101 0.2μM, GSEA KEGG): 0.3054
- enrichmentScore, mmu05017 Spinocerebellar ataxia (KTC1101 0.2μM, GSEA KEGG): -0.2487
- enrichmentScore, mmu05031 Amphetamine addiction (KTC1101 0.2μM, GSEA KEGG): 0.3398
- enrichmentScore, mmu05034 Alcoholism (KTC1101 0.2μM, GSEA KEGG): 0.2877
- enrichmentScore, mmu05100 Bacterial invasion of epithelial cells (KTC1101 0.2μM, GSEA KEGG): 0.1912
- enrichmentScore, mmu05132 Salmonella infection (KTC1101 0.2μM, GSEA KEGG): -0.223
- enrichmentScore, mmu05133 Pertussis (KTC1101 0.2μM, GSEA KEGG): 0.2038
- enrichmentScore, mmu05134 Legionellosis (KTC1101 0.2μM, GSEA KEGG): 0.3271
- enrichmentScore, mmu05135 Yersinia infection (KTC1101 0.2μM, GSEA KEGG): 0.1452
- enrichmentScore, mmu05145 Toxoplasmosis (KTC1101 0.2μM, GSEA KEGG): 0.3104
- enrichmentScore, mmu05160 Hepatitis C (KTC1101 0.2μM, GSEA KEGG): -0.1925
- enrichmentScore, mmu05162 Measles (KTC1101 0.2μM, GSEA KEGG): 0.3001
- enrichmentScore, mmu05165 Human papillomavirus infection (KTC1101 0.2μM, GSEA KEGG): 0.2105
- enrichmentScore, mmu05170 Human immunodeficiency virus 1 infection (KTC1101 0.2μM, GSEA KEGG): 0.2282
- enrichmentScore, mmu05200 Pathways in cancer (KTC1101 0.2μM, GSEA KEGG): 0.2563
- enrichmentScore, mmu05203 Viral carcinogenesis (KTC1101 0.2μM, GSEA KEGG): 0.2271
- enrichmentScore, mmu05204 Chemical carcinogenesis - DNA adducts (KTC1101 0.2μM, GSEA KEGG): -0.3876
- enrichmentScore, mmu05206 MicroRNAs in cancer (KTC1101 0.2μM, GSEA KEGG): 0.2735
- enrichmentScore, mmu05207 Chemical carcinogenesis - receptor activation (KTC1101 0.2μM, GSEA KEGG): 0.2555
- enrichmentScore, mmu05210 Colorectal cancer (KTC1101 0.2μM, GSEA KEGG): 0.2135
- enrichmentScore, mmu05211 Renal cell carcinoma (KTC1101 0.2μM, GSEA KEGG): -0.2497
- enrichmentScore, mmu05212 Pancreatic cancer (KTC1101 0.2μM, GSEA KEGG): -0.2279
- enrichmentScore, mmu05213 Endometrial cancer (KTC1101 0.2μM, GSEA KEGG): -0.2692
- enrichmentScore, mmu05214 Glioma (KTC1101 0.2μM, GSEA KEGG): 0.2912
- enrichmentScore, mmu05216 Thyroid cancer (KTC1101 0.2μM, GSEA KEGG): 0.217
- enrichmentScore, mmu05218 Melanoma (KTC1101 0.2μM, GSEA KEGG): 0.3678
- enrichmentScore, mmu05219 Bladder cancer (KTC1101 0.2μM, GSEA KEGG): 0.2813
- enrichmentScore, mmu05220 Chronic myeloid leukemia (KTC1101 0.2μM, GSEA KEGG): 0.2762
- enrichmentScore, mmu05223 Non-small cell lung cancer (KTC1101 0.2μM, GSEA KEGG): -0.2111
- enrichmentScore, mmu05231 Choline metabolism in cancer (KTC1101 0.2μM, GSEA KEGG): 0.3293
- enrichmentScore, mmu05235 PD-L1 expression and PD-1 checkpoint pathway in cancer (KTC1101 0.2μM, GSEA KEGG): 0.291
- enrichmentScore, mmu05412 Arrhythmogenic right ventricular cardiomyopathy (KTC1101 0.2μM, GSEA KEGG): 0.3444
- enrichmentScore, mmu05416 Viral myocarditis (KTC1101 0.2μM, GSEA KEGG): 0.3314
- enrichmentScore, mmu05417 Lipid and atherosclerosis (KTC1101 0.2μM, GSEA KEGG): 0.3016
- NES: Coronavirus disease - COVID-19 ([…], KTC 0.2μM): 2.023
- enrichmentScore: Coronavirus disease - COVID-19 ([…], KTC 0.2μM): 0.5276

Source: article PMC10938783, “A novel pan-PI3K inhibitor KTC1101 synergizes with anti-PD-1 therapy by targeting tumor suppression and immune activation” (Molecular Cancer, 2024)
